Source: the supplement of paper PMC10307832

How the values were obtained:
Assay in all cases: relative viability (nuclei count vs DMSO), 5 days (fraction); higher = more cells survive
[1] = compound: CCn1c(-c2nonc2N)nc2c(C#CC(C)(C)O)ncc(OC[C@H]3CCCNC3)c21 + Nc1nc2[nH]cc(CCc3ccc(C(=O)N[C@@H](CCC(=O)O)C(=O)O)cc3)c2c(=O)[nH]1 [Pemetrexed] (partner 0.2 µM)
Method in brief: (§1)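 Relative viability is defined as nuclei in treated wells over nuclei in vehicle wells. Duplicate plates were run and medians reported. Lung cancer cell lines in 1536-well plates were dosed by pin tool one day after seeding, with one drug or with a fixed anchor-drug dose plus five library-drug doses (not always all listed) in √10 steps, and nuclei were counted after 5 days.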

[2] = compound: CCOC1=CC=CC=C1N=NC2=C(NN(C2=O)C3=NC(=CS3)C4=CC=CC=C4)C [BAM7] + COc1cc2c(Oc3ccc(NC(=O)C4(C(=O)Nc5ccc(F)cc5)CC4)cc3F)ccnc2cc1OCCCN1CCOCC1 [Foretinib] (partner 0.25 µM)
Method in brief: as §1

[3] = compound: CCn1c(-c2nonc2N)nc2c(C#CC(C)(C)O)ncc(OC[C@H]3CCCNC3)c21 + CS(=O)(=O)CCNCc1ccc(-c2ccc3ncnc(Nc4ccc(OCc5cccc(F)c5)c(Cl)c4)c3c2)o1 [Lapatinib] (partner 2 µM)
Method in brief: as §1

[4] = compound: CCn1c(-c2nonc2N)nc2c(C#CC(C)(C)O)ncc(OC[C@H]3CCCNC3)c21 + COc1cccc2cc(-c3nc([C@H]4CC[C@H](C(=O)O)CC4)n4ncnc(N)c34)[nH]c12 [OSI-027] (partner 0.5 µM)
Method in brief: as §1

Row | Cell Line | relative viability ([1]; first compound 0.01 µM) | relative viability ([1]; first compound 0.03162 µM) | relative viability ([1]; first compound 0.1 µM) | relative viability ([1]; first compound 0.3162 µM) | relative viability ([1]; first compound 1 µM) | relative viability ([2]; first compound 0.5 µM) | relative viability ([2]; first compound 5 µM) | relative viability ([2]; first compound 15.81 µM) | relative viability ([2]; first compound 50 µM) | relative viability ([3]; first compound 0.01 µM) | relative viability ([3]; first compound 0.03162 µM) | relative viability ([3]; first compound 0.1 µM) | relative viability ([3]; first compound 0.3162 µM) | relative viability ([3]; first compound 1 µM) | relative viability ([4]; first compound 0.01 µM) | relative viability ([4]; first compound 0.03162 µM) | relative viability ([4]; first compound 0.1 µM) | relative viability ([4]; first compound 0.3162 µM) | relative viability ([4]; first compound 1 µM)
1 | 201T | 0.321 | 0.317 | 0.343 | 0.333 | 0.311 | 0.789 | 0.948 | 0.832 | 0.823 | 0.991 | 1.06 | 1.05 | 1.05 | 1.01 | 0.675 | 0.644 | 0.625 | 0.719 | 0.754
2 | A549 | – | – | – | – | – | 1 | 1.1 | 0.93 | 0.989 | 0.93 | 0.99 | 1.01 | 0.842 | 0.781 | – | – | – | – | –
3 | A-427 | 0.925 | 0.999 | 0.876 | 0.91 | 1.08 | 1.11 | 1.07 | 1.05 | 1.05 | 0.962 | 1.05 | 0.932 | 1.03 | 1.03 | 0.413 | 0.578 | 0.367 | 0.509 | 0.443
4 | ABC-1 | – | – | – | – | – | 1.05 | 1.17 | 0.95 | 1.19 | 1.28 | 1.26 | 1 | 1.13 | 1.15 | 0.394 | 0.36 | 0.394 | 0.31 | 0.304
5 | BEN | 0.779 | 0.821 | 0.605 | 0.753 | 0.773 | 0.694 | 0.639 | 0.634 | 0.618 | 0.608 | 0.717 | 0.444 | 0.637 | 0.626 | 0.311 | 0.302 | 0.224 | 0.275 | 0.299
6 | CAL-12T | 1.12 | 1.2 | 1.13 | 0.994 | 1.2 | 1.22 | 1.18 | 1.09 | 1.23 | 0.613 | 0.665 | 0.845 | 0.585 | 0.595 | 0.424 | 0.541 | 0.685 | 0.453 | 0.38
7 | COR-L23 | 0.212 | 0.207 | 0.202 | 0.187 | 0.196 | 0.891 | 1.01 | 0.897 | 0.981 | 0.935 | 0.994 | 0.985 | 0.916 | 1.05 | 0.839 | 0.698 | 0.687 | 0.478 | 0.384
8 | COR-L 105 | 1.18 | 1.21 | 1.18 | 1.23 | 1.3 | 0.957 | 1.24 | 0.937 | 0.979 | 0.33 | 0.366 | 0.313 | 0.393 | 0.321 | 0.664 | 0.802 | 0.59 | 0.52 | 0.499
9 | Calu-6 | – | – | – | – | – | 0.939 | 0.951 | 0.891 | 0.893 | 1.06 | 1.14 | 1.11 | 1.04 | 1.07 | – | – | – | – | –
10 | ChaGo-K-1 | 0.262 | 0.254 | 0.26 | 0.258 | 0.248 | 0.806 | 0.928 | 0.724 | 0.983 | – | – | – | – | – | 0.556 | 0.561 | 0.504 | 0.518 | 0.6
11 | EBC-1 | – | – | – | – | – | 0.0974 | 0.103 | 0.0984 | 0.102 | 0.219 | 0.197 | 0.213 | 0.236 | 0.227 | – | – | – | – | –
12 | EKVX | 0.424 | 0.388 | 0.409 | 0.393 | 0.355 | 0.792 | 0.79 | 0.541 | 0.987 | 0.235 | 0.203 | 0.223 | 0.206 | 0.223 | 0.685 | 0.671 | 0.678 | 0.686 | 0.752
13 | EMC-BAC-2 | 0.391 | 0.427 | 0.443 | 0.43 | 0.427 | 0.974 | 1.04 | 0.985 | 1.05 | 0.871 | 0.83 | 0.866 | 0.88 | 0.938 | 0.341 | 0.379 | 0.354 | 0.369 | 0.336
14 | EPLC-272H | 0.299 | 0.301 | 0.346 | 0.297 | 0.282 | 0.653 | – | 0.632 | 0.811 | 0.905 | 0.998 | 0.907 | 0.788 | 0.909 | 0.303 | 0.261 | 0.262 | 0.314 | 0.264
15 | H3255 | 0.543 | 0.571 | 0.618 | 0.536 | 0.548 | 0.774 | 0.868 | 0.806 | 0.858 | 0.259 | 0.202 | 0.217 | 0.276 | 0.228 | 0.683 | 0.658 | 0.607 | 0.539 | 0.528
16 | HARA | 0.24 | 0.19 | 0.223 | 0.247 | 0.249 | 0.913 | 0.833 | 0.779 | 1.02 | 0.718 | 0.7 | 0.684 | 0.554 | 0.95 | 0.5 | 0.575 | 0.368 | 0.472 | 0.459
17 | HCC-15 | 0.218 | 0.225 | 0.218 | 0.211 | 0.209 | 1 | 1.04 | 0.982 | 1 | 0.868 | 0.824 | 0.865 | 0.808 | 0.795 | 0.576 | 0.602 | 0.626 | 0.575 | 0.595
18 | HCC-44 | 0.633 | 0.649 | 0.661 | 0.577 | 0.636 | – | – | – | – | 0.93 | 0.975 | 1.01 | 0.989 | 1.09 | – | – | 0.484 | 0.372 | 0.499
19 | HCC-78 | 0.864 | 0.92 | 0.952 | 0.871 | 0.669 | 0.566 | 0.516 | 0.564 | 0.58 | 0.717 | 0.673 | 0.903 | 0.547 | 0.301 | 0.405 | 0.386 | 0.325 | 0.331 | 0.341
